Laboratory results from PubChem BioAssay (NCI).
“And” between values parts separate entries of the source, which are not always exact repeats. Equal values may be shown once.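 48-hour exposure; five concentrations; linearly interpolated endpoints. GI50 = concentration required for 50% inhibition of growth. TGI: total growth inhibition.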

What was measured:
Experiment in all cases: NCI-60 cell line screen, 48 h
DU-145 prostate = tested on: DU-145 prostate
HCT-15 colon = tested on: HCT-15 colon
HL-60(TB) leukemia = tested on: HL-60(TB) leukemia
HOP-62 NSCLC = tested on: HOP-62 NSCLC
HT29 colon = tested on: HT29 colon
MCF7 breast = tested on: MCF7 breast
NCI-H522 lung = tested on: NCI-H522 lung
OVCAR-8 ovarian = tested on: OVCAR-8 ovarian
RXF 393 renal = tested on: RXF 393 renal
SNB-19 CNS = tested on: SNB-19 CNS

SMILES	TGI (DU-145 prostate)	TGI (HCT-15 colon) [µM]	TGI (HL-60(TB) leukemia) [µM]	TGI (HOP-62 NSCLC)	TGI (HT29 colon)	TGI (MCF7 breast)	TGI (NCI-H522 lung)	TGI (OVCAR-8 ovarian)	TGI (RXF 393 renal)	TGI (SNB-19 CNS)	GI50 (DU-145 prostate) [µM]	GI50 (HL-60(TB) leukemia) [µM]	GI50 (HOP-62 NSCLC) [µM]	GI50 (HT29 colon) [µM]	GI50 (MCF7 breast) [µM]	GI50 (NCI-H522 lung) [µM]	GI50 (OVCAR-8 ovarian) [µM]	GI50 (RXF 393 renal) [µM]	GI50 (SNB-19 CNS) [µM]	GI50 (HCT-15 colon) [µM]
C=C1C(=O)OC2CC1C(O)C/C(C)=C/CC/C(C)=C/C(O)CC2C (stereo unspecified)	10.8 µM	4.95	1.32	25.2 µM	4.61 µM	7.44 µM	0.504 µM	4.72 µM	2.96 µM	18.9 µM										
COc1cc2c3c(n(CCCNCCN)c(=O)c2cc1OC)-c1cc2c(cc1C3=O)OCO2	3.41 µM	> 40.3	3.66	1.73 µM	10.4 µM	> 100 µM	2.29 µM	6.73 µM	> 51.8 µM	> 100 µM	0.556	0.682	0.189	1.08	0.616	0.245	0.259	5.36	40.8	
CC[C@@]1(O)C(=O)NCc2c1cc1n(c2=O)Cc2cc3c(N)cccc3nc2-1	17.9 µM	> 100	> 34.6		> 100 µM	> 100 µM	9.71 µM	> 78.7 µM	24.9 µM	> 50.7 µM	1.04	1.19	0.973	15.1	0.787	0.176	2.39	5.35	2.93	11.5
O=c1[nH]c(=O)n(C2OC(CO)C(O)C2O)c2c1CCCC2 (stereo unspecified)	> 100 µM	> 100	> 100	> 100 µM	> 100 µM	> 100 µM	> 100 µM	> 100 µM	> 100 µM	> 100 µM										
N#Cc1cnc2cc(OC[C@@H](O)CO)c(NC(=O)CC3CSSC3)cc2c1Nc1ccc(OCc2cccc(F)c2)c(Cl)c1	0.398 µM	6.51	1.47	0.896 µM	0.759 µM	0.182 µM	0.973 µM	1.85 µM	1.44 µM	1.18 µM	0.131	0.589	0.311	0.225	0.0857	0.336	0.651	0.643	0.381	1.63
COc1ccc(-c2cc(/C=C3\C(=O)Nc4ccc(Cl)cc43)[nH]n2)cc1	13.6 µM	14.2	10.4	15.8 µM	10.9 µM	11.8 µM	5.67 µM	20 µM	19.1 µM	28 µM	3.89	3.04	4.39	3.35	2.43	2.03	6.59	5.61	10.4	2.8
C=C1C(=O)O[C@H]2[C@H]1CC/C(COC(=O)NCc1ccc(Cn3c(=O)sn(CCCCl)c3=O)cc1)=C\CC[C@@]1(C)O[C@@H]21	3.15 µM	4.25	3.77	27.5 µM	5.58 µM	4.54 µM	1.94 µM	5.42 µM	2.8 µM	17.4 µM	1.64	0.967	13.9	2.46	1.71	0.538	2.32	1.35	4.84	1.94
Cc1sc(C)c(Cc2c(C)sc(C)c2CCl)c1CCl	> 100 µM	> 100	> 100	> 100 µM	> 100 µM	> 100 µM	> 100 µM	> 100 µM	> 100 µM	> 100 µM	> 100	> 100	> 100	> 100	> 100	> 100	> 100	> 100	> 100	> 100
OCC1OC(n2ccc3c(NO)ncnc32)C(O)C1O (stereo unspecified)	0.702 µM	1.52	0.638	2.51 µM	0.94 µM	1.68 µM	0.718 µM	1.94 µM	1.14 µM		0.111	0.214	0.219	0.13	0.13	0.188	0.184	0.163	0.263	0.118
COCCOC(=O)NC(=O)Nc1ccc(/C(=N/O)c2ccc(Cl)cc2)cc1	20.4 µM	19.8	0.137	41.2 µM	15.3 µM	37.9 µM	5.58 µM	34.7 µM	3.2 µM	> 100 µM	0.121	0.0783	0.127	0.108	0.0989	0.123	0.188	0.0866	0.535	0.0842
Nc1ccc2c(c1)NCCN2	> 100 µM	> 100	89.4	> 100 µM	> 100 µM	> 100 µM	> 100 µM	> 100 µM	> 100 µM	> 100 µM										
O=C(Nc1ccc(F)cc1)c1c(NC(=O)C(F)(F)F)sc2c1CCCCC2	87.1 µM	10.8	8.32	6.48 µM	13.5 µM	9.84 µM	7.41 µM	> 100 µM	6.56 µM	21.4 µM	3.43	2.68	2.26	2.48	1.97	1.33	2.8	1.75	1.56	2.59
COc1cc2c3c(c1)c1cc(OC)c(OC)cc1c[n+]3CC2	50 µM and > 100 µM	> 100	> 100	50 µM and > 100 µM	50 µM and > 100 µM	50 µM and > 100 µM	14.8 µM and 37.1 µM	50 µM and 43.6 µM	50 µM and > 100 µM	50 µM and > 100 µM	40.3	> 100	3.24	37.2	21.3	1.93	1.86		1.94	> 100
